# Measured values as given in patent US20090270469A1, “SUBSTITUTED OXAZOLIDINONES” (AUSPEX PHARMACEUTICALS, INC., priority 2008, published 2009).
# Assays:
# human liver microsomes = experiment: In vitro human liver microsomal (HLM) stability assay; format: in vitro ADME; conditions: human liver microsomes 1 mg/mL, 1 μM compound, 37° C., vs non-isotopically enriched drug
# Experimental: Liver microsomal stability assays were conducted at 1 mg per mL liver microsome protein with an NADPH-generating system in 2% NaHCO3 (2.2 mM NADPH, 25.6 mM glucose 6-phosphate, 6 units per mL glucose 6-phosphate dehydrogenase and 3.3 mM MgCl2). Test compounds were prepared as solutions in 20% acetonitrile-water. These solutions were added to the assay mixture (final assay concentration 1 μM) and incubated at 37° C. Final concentration of acetonitrile in the assay should be <1%. Aliquots (50 μL) were collected at the these timpoints: […], and 1 hours, and diluted with ice cold acetonitrile (200 μL) to stop the reactions. Samples were centrifuged at 12,000 RPM for 10 minutes to precipitate proteins. Supernatants were transferred to micro centrifuge tubes and stored for LC/MS/MS analysis of the degradation half-life of the test compounds.
# Results of in vitro Human Liver Microsomal (HLM) Stability Assay
# [1] = 400 mg oral dose under fasted conditions; cited from earlier work
Compound,"% increase of HLM degradation half-life, bin 0%-50% (human liver microsomes)",other results
"Cc1cc(C)cc(OCC2CNC(=O)O2)c1 (centres unmarked) [Example 1, 5-[(3,5-dimethylphenoxy)methyl]oxazolidin-2-one]",,"% increase of HLM degradation half-life, bin −25%-0% (human liver microsomes): + (−25%-0%); terminal half-life [1]: 9.0 ± 4.8 h; time of peak plasma concentrations [1]: approximately 3 hours"
"[2H]C([2H])([2H])c1cc(OC([2H])([2H])C2CNC(=O)O2)cc(C([2H])([2H])[2H])c1 (centres unmarked) [Example 4, 5-[(3,5-Dimethyl-d6-phenoxy)methyl-d2]oxazolidin-2-one]",+ (0%-50%),
"[2H]C1([2H])NC(=O)OC1([2H])C([2H])([2H])Oc1cc(C)cc(C)c1 (centres unmarked) [Example 5, 5-[(3,5-Dimethylphenoxy)methyl-d2]oxazolidin-4,4,5-d3-2-one]",+ (0%-50%),
"[2H]C([2H])([2H])c1cc(OC([2H])([2H])C2([2H])OC(=O)NC2([2H])[2H])cc(C([2H])([2H])[2H])c1 (centres unmarked) [Example 6, 5-[(3,5-Dimethyl-d6-phenoxy)methyl-d2]oxazolidin-4,4,5-d3-2-one]",+ (0%-50%),

# More lines, main results first:
"% increase of HLM degradation half-life, bin 0%-50% (human liver microsomes)",Compound,other results
+ (0%-50%),"[2H]C([2H])([2H])c1cc(OCC2CNC(=O)O2)cc(C([2H])([2H])[2H])c1 (centres unmarked) [Example 2, 5-[(3,5-dimethyl-d6-phenoxy)methyl]oxazolidin-2-one]",
+ (0%-50%),"[2H]C([2H])(Oc1cc(C)cc(C)c1)C1CNC(=O)O1 (centres unmarked) [Example 3, 5-[(3,5-dimethyl-phenoxy)methyl-d2]oxazolidin-2-one]",
